Laboratory results published in patent publication EP0527889B1, “QUINOLIZINONE TYPE COMPOUNDS” (priority 1990, dated 1991).
In brackets after ≈: the same amount, converted by molar mass. Counter-ions that a name gives are not always drawn.

Legend:
Assay in all cases: In vitro antibacterial activity, MIC by agar dilution
Type in all cases: cell-based
Conditions in all cases: BHI agar, 35-37°C, 20-24 hours, unit assumed
[1] = test system: Pseudomonas aeruginosa K799/61
Procedure: (§1) Each plate was inoculated with 1:100 (or 1:10 for slow growing strains, primarily Micrococcus and Streptococcus) dilutions of up to 32 different microorganisms, using a Steers replicator block calibrated to deliver approximately 10^4 colony forming units (CFUs). The inoculated plates were incubated at from about 35°C to about 37°C for approximately 20-24 hours. In addition, a control plate using BHI agar containing no test compound was prepared and incubated at the beginning and at the end of each test. Ciprofloxacin was used as the control antibiotic.
(§2) The MIC was defined as the lowest concentration of test compound yielding no growth (a slight haze or sparsely isolated colonies at the inoculum spot) as compared to the growth control containing no test compound.

[2] = test system: Staphylococcus epidermidis 3519
Procedure: as §1, §2

[3] = test system: Streptococcus pyrogenes CONST
Procedure: as §1, §2

[4] = test system: Staphylococcus aureus NCTC 10649
Procedure: as §1, §2

[5] = test system: Pseudomonas aeruginosa 2862
Procedure: as §1, §2

[6] = test system: Streptococcus pyrogenes EES61
Procedure: as §1, §2

[7] = test system: Pseudomonas aeruginosa BMH10
Procedure: as §1, §2

[8] = test system: Pseudomonas aeruginosa A5007
Procedure: as §1, §2

[9] = test system: Staphylococcus aureus A-5278
Procedure: as §1, §2

[10] = test system: Streptococcus agalactaciae CMX 508
Procedure: as §1, §2

[11] = test system: Pseudomonas aeruginosa K799/WT
Procedure: as §1, §2

[12] = test system: Acinetobacter calcoaceticus CMX 669
Procedure: as §1, §2

[13] = test system: Pseudomonas aeruginosa 5263
Procedure: as §1, §2

[14] = test system: Streptococcus pyrogenes 2548 INDUC
Procedure: as §1, §2

[15] = test system: Providencia stuartii CMX 640
Procedure: as §1, §2

[16] = test system: Micrococcus luteus ATCC 4698
Procedure: as §1, §2

[17] = test system: Staphylococcus aureus 1775
Procedure: as §1, §2

[18] = test system: Micrococcus luteus ATCC 9341
Procedure: as §1, §2

Escherichia coli SS = test system: Escherichia coli SS
Procedure: as §1, §2

[19] = test system: Enterococcus faecium ATCC 8043
Procedure: as §1, §2

[20] = test system: Staphylococcus aureus 642A
Procedure: as §1, §2

Escherichia coli DC-2 = test system: Escherichia coli DC-2
Procedure: as §1, §2

Escherichia coli KNK 437 = test system: Escherichia coli KNK 437
Procedure: as §1, §2

[21] = test system: Enterobacter aerogenes ATCC 13048
Procedure: as §1, §2

[22] = test system: Staphylococcus aureus A5177
Procedure: as §1, §2

[23] = test system: Staphylococcus aureus CMX 553
Procedure: as §1, §2

Pseudomonas cepacia 296I = test system: Pseudomonas cepacia 296I
Procedure: as §1, §2

[24] = test system: Staphylococcus aureus ATCC 6538P
Procedure: as §1, §2

[25] = test system: Klebsiella pneumoniae ATCC 8045
Procedure: as §1, §2

[26] = test system: Streptococcus bovis A5169
Procedure: as §1, §2

Escherichia coli H560 = test system: Escherichia coli H560
Procedure: as §1, §2

Escherichia coli JUHL = test system: Escherichia coli JUHL
Procedure: as §1, §2

With CC(C)(C)OC(=O)NC1CCN(c2nc3c(-c4ccc(F)cc4F)cc(C(=O)O)c(=O)n3cc2F)C1 (stereo not drawn) [Example 160, 2-(3-(N-t-butoxycarbonyl)aminopyrrolidin-1-yl)-9-(2,4-difluorophenyl)-3-fluoro-6H-6-oxopyrido[1,2-a]pyrimidine-7-carboxylic acid] the MIC values [1] was 3.1 µg/mL (≈ 6.15 µM), the MIC values [2] was 0.39 µg/mL (≈ 0.773 µM) and the MIC values [3] was 1.56 µg/mL (≈ 3.09 µM). The MIC values [4] was 0.2 µg/mL (≈ 0.396 µM), the MIC values [5] was greater than 100 µg/mL and the MIC values [6] was 1.56 µg/mL (≈ 3.09 µM). The MIC values [7] was 12.5 µg/mL (≈ 24.8 µM), the MIC values [8] was 25 µg/mL (≈ 49.6 µM) and the MIC values [9] was 0.2 µg/mL (≈ 0.396 µM). For the same compound, the MIC values [10] was 1.56 µg/mL (≈ 3.09 µM), the MIC values [11] was 12.5 µg/mL (≈ 24.8 µM) and the MIC values [12] was 3.1 µg/mL (≈ 6.15 µM). For the same compound, the MIC values [13] was greater than 100 µg/mL, the MIC values [14] was 0.78 µg/mL (≈ 1.55 µM) and the MIC values [15] was greater than 100 µg/mL. The MIC values [16] was 0.78 µg/mL (≈ 1.55 µM), the MIC values [17] was 100 µg/mL (≈ 198 µM) and the MIC values [18] was 6.2 µg/mL (≈ 12.3 µM). It also gave an MIC values (Escherichia coli SS) of 0.005 µg/mL (≈ 0.00991 µM), an MIC values [19] of 3.1 µg/mL (≈ 6.15 µM) and an MIC values [20] of 0.2 µg/mL (≈ 0.396 µM). It also gave an MIC values (Escherichia coli DC-2) of 25 µg/mL (≈ 49.6 µM), an MIC values (Escherichia coli KNK 437) of 25 µg/mL (≈ 49.6 µM) and an MIC values [21] of 12.5 µg/mL (≈ 24.8 µM). For the same compound, the MIC values [22] was 0.39 µg/mL (≈ 0.773 µM), the MIC values [23] was 0.39 µg/mL (≈ 0.773 µM) and the MIC values (Pseudomonas cepacia 296I) was greater than 100 µg/mL. For the same compound, the MIC values [24] was 0.2 µg/mL (≈ 0.396 µM), the MIC values [25] was 1.56 µg/mL (≈ 3.09 µM) and the MIC values [26] was 6.2 µg/mL (≈ 12.3 µM). The MIC values (Escherichia coli H560) was 3.1 µg/mL (≈ 6.15 µM) and the MIC values (Escherichia coli JUHL) was 0.39 µg/mL (≈ 0.773 µM).

C[C@H](N)C(=O)N[C@@H](C)C(=O)N[C@H]1C[C@H](C)N(c2nc3c(-c4ccc(F)cc4F)cc(C(=O)O)c(=O)n3cc2F)C1 [Example 173, 2-((2S, 4S)-4-(N-(S)-Alanyl-(S)-alanyl)amino-2-methylpyrrolidin-1-yl)-9-(2,4-difluorophenyl)-3-fluoro-6H-6-oxopyrido[1,2-a]pyrimidine-7-carboxylic acid hydrochloride] gave an MIC values [1] of 3.1 µg/mL, an MIC values [2] of 6.2 µg/mL and an MIC values [3] of 12.5 µg/mL. For the same compound, the MIC values [4] was 1.56 µg/mL, the MIC values [5] was greater than 100 µg/mL and the MIC values [6] was 12.5 µg/mL. The MIC values [7] was 50 µg/mL, the MIC values [8] was 50 µg/mL and the MIC values [9] was 6.2 µg/mL. The MIC values [10] was 12.5 µg/mL, the MIC values [11] was 100 µg/mL and the MIC values [12] was 25 µg/mL. It also gave an MIC values [13] greater than 100 µg/mL, an MIC values [14] of 6.2 µg/mL and an MIC values [15] greater than 100 µg/mL. For the same compound, the MIC values [16] was 100 µg/mL, the MIC values [17] was greater than 100 µg/mL and the MIC values [18] was greater than 100 µg/mL. The MIC values (Escherichia coli SS) was 0.1 µg/mL, the MIC values [19] was 50 µg/mL and the MIC values [20] was 12.5 µg/mL. It also gave an MIC values (Escherichia coli DC-2) greater than 100 µg/mL, an MIC values (Escherichia coli KNK 437) of 100 µg/mL and an MIC values [21] of 25 µg/mL. The MIC values [22] was 6.2 µg/mL, the MIC values [23] was 12.5 µg/mL and the MIC values (Pseudomonas cepacia 296I) was greater than 100 µg/mL. It also gave an MIC values [24] of 1.56 µg/mL, an MIC values [25] of 3.1 µg/mL and an MIC values [26] of 25 µg/mL. For the same compound, the MIC values (Escherichia coli H560) was 3.1 µg/mL and the MIC values (Escherichia coli JUHL) was 6.2 µg/mL.

CN1CCN(c2nc3c(C4CC4)cc(C(=O)O)c(=O)n3cc2F)CC1 [Example 163, 9-Cyclopropyl-3-fluoro-2-(4-methylpiperazin-1-yl)-6H-6-oxo-pyrido[1,2-a]pyrimidine-7-carboxylic acid] gave an MIC values [1] of 1.56 µg/mL (≈ 4.5 µM), an MIC values [2] of 1.56 µg/mL (≈ 4.5 µM) and an MIC values [3] of 12.5 µg/mL (≈ 36.1 µM). It also gave an MIC values [4] of 0.78 µg/mL (≈ 2.25 µM), an MIC values [5] greater than 100 µg/mL and an MIC values [6] of 12.5 µg/mL (≈ 36.1 µM). The MIC values [7] was 1.56 µg/mL (≈ 4.5 µM), the MIC values [8] was 3.1 µg/mL (≈ 8.95 µM) and the MIC values [9] was 1.56 µg/mL (≈ 4.5 µM). For the same compound, the MIC values [10] was 12.5 µg/mL (≈ 36.1 µM), the MIC values [11] was 3.1 µg/mL (≈ 8.95 µM) and the MIC values [12] was 0.39 µg/mL (≈ 1.13 µM). The MIC values [13] was 100 µg/mL (≈ 289 µM), the MIC values [14] was 12.5 µg/mL (≈ 36.1 µM) and the MIC values [15] was 50 µg/mL (≈ 144 µM). The MIC values [16] was 12.5 µg/mL (≈ 36.1 µM), the MIC values [17] was 100 µg/mL (≈ 289 µM) and the MIC values [18] was 25 µg/mL (≈ 72.2 µM). For the same compound, the MIC values (Escherichia coli SS) was 0.1 µg/mL (≈ 0.289 µM), the MIC values [19] was 12.5 µg/mL (≈ 36.1 µM) and the MIC values [20] was 1.56 µg/mL (≈ 4.5 µM). The MIC values (Escherichia coli DC-2) was 6.2 µg/mL (≈ 17.9 µM), the MIC values (Escherichia coli KNK 437) was 3.1 µg/mL (≈ 8.95 µM) and the MIC values [21] was 0.39 µg/mL (≈ 1.13 µM). It also gave an MIC values [22] of 1.56 µg/mL (≈ 4.5 µM), an MIC values [23] of 1.56 µg/mL (≈ 4.5 µM) and an MIC values (Pseudomonas cepacia 296I) of 12.5 µg/mL (≈ 36.1 µM). It also gave an MIC values [24] of 1.56 µg/mL (≈ 4.5 µM), an MIC values [25] of 0.1 µg/mL (≈ 0.289 µM) and an MIC values [26] of 50 µg/mL (≈ 144 µM). For the same compound, the MIC values (Escherichia coli H560) was 0.1 µg/mL (≈ 0.289 µM) and the MIC values (Escherichia coli JUHL) was 0.2 µg/mL (≈ 0.577 µM).
